“And” between values parts separate entries of the source, which are not always exact repeats. Equal values may be shown once. Read-outs that look alike come from different tables or passages of the source.
System: rainbow trout
Assay: In vivo bioconcentration experiment with a mixture of anionic surfactants, flow-through aquaria, 10 °C, pH 7.8
Settings: for Log BCF: determined with measured concentrations in water; for Concentration in fish: individual fish; for BCF (kinetic): kinetic BCF from measured concentrations in water
Description: The bioconcentration of a mixture of 10 anionic surfactants was measured in rainbow trout in water at pH 7.8. […] The experiment was conducted in flow-through aquaria with juvenile rainbow trout at 10 °C. Ethical approval for the experiments was obtained from Stockholms […] (decision 9967-2017). The fish, fish housing, fish handling, and procedure for introducing the mixture of […] chemicals were very similar to our previous study with cationic surfactants;[5] details are provided in Text S1. The experiment consisted of a 4-day exposure phase and a 7-day depuration phase. […] Water samples were collected and fish were sacrificed according to the schedule in Table S4. The water samples were collected just prior to the daily removal of feces from the aquarium. Triplicate samples were taken at each time point. […] The water/methanol mixture was analyzed using liquid chromatography-mass spectrometry (LC-MS)/MS as described below for fish. At each fish sampling, five fish were sacrificed. Following stunning and severance of the spinal cord, the whole fish were placed in a polyethylene bag, weighed, and immediately frozen at -20 °C. The weight of the individual fish at sacrifice was 24.0 ± 5.6 g. Three of the five fish from each time point were prioritized for analysis based on proximity to the median fish weight. Each fish was […] homogenized with an Ultra-turrax dispersing device. […] This mixture was homogenized in a bullet blender for 5 min and then placed in an ultrasound bath at 45 °C for 15 min. Following centrifugation for 15 min@3200 RCF, the supernatant was decanted and the extraction was repeated. The extracts were combined. For instrumental analysis, 5 μL of the fish extract or 60 μL of the water/methanol mixture (water samples) was separated on an Acquity UPLC BEH C18 column fitted with a BEH C18 pre-column and analyzed on a TSQ Quantiva triple quadrupole mass spectrometer. The mobile phase was methanol (10 mM ammonium acetate) and Milli-Q-filtered water (10 mM ammonium acetate) (see Table S5 for the liquid chromatography program). To avoid detergent blank peaks originating from cleaning mobile phase bottles, the methanol was prepared directly in the solvent bottle as delivered and Milli-Q was tapped into an empty methanol bottle. Furthermore, a guard column was fitted between the mobile phase and the autosampler to prevent background contamination from disturbing the analysis. All analytes were quantified against the BEHP internal standard, as it gave better reproducibility. […] The central goal of the analysis was to estimate kU and kT as well as the BCF (=kU/kT) from measurements of surfactant concentration in fish and water samples collected at different time points of the experiment. For the fish, only those time points were included for which CF(measured) was above the limit of quantitation (LOQ) in all three fish (data below the LOQ will have a positive bias; including them would result in a negative bias in kT). In this analysis, there exist two sources of uncertainty: first, uncertainty in the actual concentration in water CW at the time of sample collection and second, variability in the concentration in fish around the (expected) surfactant concentrations in fish assumed to follow model (1). We therefore set up a model in which we considered uncertainty in both water and fish measurements simultaneously by assuming a parametric model for the surfactant concentration in the water over time (either linear or quadratic) and accounted for the uncertainty in the corresponding parameters of the water model during the estimation of kU and kT. This was done in a joint Bayesian model that we estimated via Hamiltonian Monte Carlo. […]

[1] = determined using nominal concentrations in water
[2] = from measured concentrations in water, Bayesian estimate, 95% credible interval in brackets
[3] = 95% credible interval in brackets
[4] = measured concentrations in water, simpler estimation method (Text S3), 95% confidence intervals in brackets

SMILES | Log BCF [L kg-1 ww] | Concentration in fish (elimination phase, 97 h) | Concentration in fish (elimination phase, 98 h) | Concentration in fish (elimination phase, 100 h) | Concentration in fish (elimination phase, 103 h) | Concentration in fish (elimination phase, 120 h) | Concentration in fish (elimination phase, 128 h) | Concentration in fish (elimination phase, 144 h) | Concentration in fish (elimination phase, 168 h) | Concentration in fish (elimination phase, 192 h) | Concentration in fish (elimination phase, 264 h) | Concentration in fish (exposure phase, 1 h) | Concentration in fish (exposure phase, 2 h) | Concentration in fish (exposure phase, 3 h) | Concentration in fish (exposure phase, 4 h) | Concentration in fish (exposure phase, 6 h) | Concentration in fish (exposure phase, 24 h) | Concentration in fish (exposure phase, 48 h) | Concentration in fish (exposure phase, 72 h) | Concentration in fish (exposure phase, 96 h) | further results
CCCCCCCCCCCCCCS(=O)(=O)O [C14SO3, tetradecylsulfonate] | 1.47 | 113 ng g-1 ww and 118 ng g-1 ww and 164 ng g-1 ww | 130 ng g-1 ww and 119 ng g-1 ww and 109 ng g-1 ww | 185 ng g-1 ww and 93 ng g-1 ww and 114 ng g-1 ww | 94 ng g-1 ww and 194 ng g-1 ww and 108 ng g-1 ww | 62 ng g-1 ww and 81 ng g-1 ww and 50 ng g-1 ww | 60 ng g-1 ww and 45 ng g-1 ww and 68 ng g-1 ww | 42 ng g-1 ww and 31 ng g-1 ww and 70 ng g-1 ww | 30 ng g-1 ww and 28 ng g-1 ww and 16.5 ng g-1 ww | 11.9 ng g-1 ww and 8.6 ng g-1 ww and 12.7 ng g-1 ww | 6.6 ng g-1 ww and 4.8 ng g-1 ww and 1.75 ng g-1 ww | 38 ng g-1 ww and 7.5 ng g-1 ww and 72 ng g-1 ww | 11.3 ng g-1 ww and 11.7 ng g-1 ww and 6.8 ng g-1 ww | 16.0 ng g-1 ww and 19.9 ng g-1 ww and 15.9 ng g-1 ww | 27 ng g-1 ww and 153 ng g-1 ww and 415 ng g-1 ww | 41 ng g-1 ww and 39 ng g-1 ww and 32 ng g-1 ww | 101 ng g-1 ww and 111 ng g-1 ww and 80 ng g-1 ww | 152 ng g-1 ww and 155 ng g-1 ww and 117 ng g-1 ww | 180 ng g-1 ww and 141 ng g-1 ww and 103 ng g-1 ww | 168 ng g-1 ww and 150 ng g-1 ww and 178 ng g-1 ww | BCF [1]: 32 L kg-1 ww; Elimination rate constant kT [1]: 0.028 h⁻¹; Uptake rate constant kU [1]: 0.90 L/kg/h; Elimination rate constant kT [2]: 0.024 (0.022–0.026) h^–1; Uptake rate constant kU [2]: 0.70 (0.61–0.80) L kg^–1 ww h^–1; diffusion coefficient (D) in the epithelial membrane of the gills (in vivo): 3.1 × 10^–8 m h^–1; BCF (kinetic) [3]: 30 (26–33) L kg^–1 ww; BCF [4]: 28 (8) L kg-1 ww; Elimination rate constant kT [4]: 0.026 (5) h-1; Uptake rate constant kU [4]: 0.73 (6) L kg-1 ww h-1
CCCCCCCCCCCCCCCCS(=O)(=O)O [C16SO3, hexadecylsulfonate] | 3.14 | 4206 ng g-1 ww and 4275 ng g-1 ww and 4280 ng g-1 ww | 3644 ng g-1 ww and 3202 ng g-1 ww and 3035 ng g-1 ww | 4355 ng g-1 ww and 3469 ng g-1 ww and 3603 ng g-1 ww | 3251 ng g-1 ww and 4192 ng g-1 ww and 3692 ng g-1 ww | 2630 ng g-1 ww and 4641 ng g-1 ww and 2805 ng g-1 ww | 3635 ng g-1 ww and 2712 ng g-1 ww and 2831 ng g-1 ww | 2859 ng g-1 ww and 2503 ng g-1 ww and 3401 ng g-1 ww | 2804 ng g-1 ww and 2276 ng g-1 ww and 2244 ng g-1 ww | 1669 ng g-1 ww and 1852 ng g-1 ww and 2440 ng g-1 ww | 1420 ng g-1 ww and 2150 ng g-1 ww and 967 ng g-1 ww | 440 ng g-1 ww and 319 ng g-1 ww and 614 ng g-1 ww | 300 ng g-1 ww and 304 ng g-1 ww and 147 ng g-1 ww | 347 ng g-1 ww and 392 ng g-1 ww and 451 ng g-1 ww | 510 ng g-1 ww and 1310 ng g-1 ww and 2283 ng g-1 ww | 557 ng g-1 ww and 678 ng g-1 ww and 649 ng g-1 ww | 2045 ng g-1 ww and 1698 ng g-1 ww and 1479 ng g-1 ww | 3941 ng g-1 ww and 3596 ng g-1 ww and 1879 ng g-1 ww | 1532 ng g-1 ww and 3782 ng g-1 ww and 3167 ng g-1 ww | 3775 ng g-1 ww and 5248 ng g-1 ww and 3695 ng g-1 ww | Uptake rate constant kU: 6.3 L kg^–1 h^–1; Elimination rate constant kT [2]: 0.0047 (0.0026–0.0062) h^–1; Uptake rate constant kU [2]: 6.3 (5.3–7.4) L kg^–1 ww h^–1; diffusion coefficient (D) in the epithelial membrane of the gills (in vivo): 1.6 × 10^–8 m h^–1; BCF (kinetic) [3]: 1370 (1070–2200) L kg^–1 ww; BCF [4]: 1480 (14) L kg-1 ww; Elimination rate constant kT [4]: 0.0073 (10) h-1; Uptake rate constant kU [4]: 10.8 (10) L kg-1 ww h-1
CCCCC(CC)COC(=O)CC(C(=O)OCC(CC)CCCC)S(=O)(=O)O (stereo not drawn) [DOSS, bis(2-ethylhexyl)sulfosuccinate] | 0.15 | 69 ng g-1 ww and 70 ng g-1 ww | 25 ng g-1 ww and 34 ng g-1 ww | 92 ng g-1 ww and 49 ng g-1 ww and 45 ng g-1 ww | 35 ng g-1 ww and 33 ng g-1 ww | 14.2 ng g-1 ww and 36 ng g-1 ww and 13.5 ng g-1 ww | 15.7 ng g-1 ww and 17.8 ng g-1 ww | 4.1 ng g-1 ww and 6.4 ng g-1 ww and 24 ng g-1 ww | 2.3 ng g-1 ww and 7.9 ng g-1 ww and 3.0 ng g-1 ww | 0.75 ng g-1 ww and 4.2 ng g-1 ww and 0.92 ng g-1 ww | 4.5 ng g-1 ww and 2.9 ng g-1 ww and 0.40 ng g-1 ww | 10.9 ng g-1 ww and 5.8 ng g-1 ww and 17.8 ng g-1 ww | 11.0 ng g-1 ww and 7.5 ng g-1 ww | 17.4 ng g-1 ww and 15.2 ng g-1 ww | 21 ng g-1 ww and 42 ng g-1 ww and 106 ng g-1 ww | 32 ng g-1 ww and 25 ng g-1 ww | 59 ng g-1 ww and 41 ng g-1 ww | 66 ng g-1 ww and 56 ng g-1 ww | 59 ng g-1 ww and 78 ng g-1 ww | 62 ng g-1 ww and 67 ng g-1 ww | Uptake rate constant kU: 0.090 L kg^–1 h^–1; BCF [1]: 3.0 L kg-1 ww; Uptake rate constant kU [1]: 0.169 L/kg/h; Uptake rate constant kU [2]: 0.090 (0.074–0.110) L kg^–1 ww h^–1; BCF (kinetic) [3]: 1.42 (1.22–1.66) L kg^–1 ww; BCF [4]: 1.37 (14) L kg-1 ww; Uptake rate constant kU [4]: 0.088 (9) L kg-1 ww h-1; BCF (own values): 1.42 L kg^–1; diffusion coefficient (D) in the epithelial membrane of the gills (solved from eq 3 with kU, DMLW, gill area, fish 0.024 kg, membrane density 1 kg L^–1): 9.3 × 10^–9 m h^–1
